In EP0792647A1, “Porphyrins as urokinase-type plasminogen activator receptor antagonists” (BOEHRINGER MANNHEIM GMBH, priority 1996, dated 1997):
Where a name gives a salt, the structure may show the parent alone. Read-outs that look alike come from different tables or passages of the source.

Columns and labels:
[1] = target: T1, NIH 3T3 cells transfected with a human urokinase receptor (Homo sapiens, UniProt Q03405); experiment: Cellular assay: uPA binding to NIH 3T3 cells transfected with a human urokinase receptor; assay type: cell-based
T1 construct: expressed in transfected cells; host or cells: NIH 3T3 (clone NIH3T3 CH1 (15.10)), mouse fibroblasts
Protocol: An enzyme test was used to detect inhibtion of urokinase activity and a cellular assay using NIH 3T3 (from ATCC) cells transfected with a human urokinase receptor was obtained.
Medium: • DMEM (MEM dulbecco/Boehringer) with NaHCO3 and 4.5 g/l Glucose
add: • 10% FCS (Seromed) • 2 mM L-Glutamine • 1 mM Na-Pyruvat • 100 U/ml Penicillin • 100 µg/ml Streptomycin • 1 µg/ml G 418 (Geneticin) • sterilize all supplements by filtration
Take a 1 mg/ml fibronectin solution (in sterile water) and dilute an appropriate aligot with sterile PBS to a final concentration of 50 µg/ml. Coat the 96-well plate with 200 µl//well. Incubate for about 45 min. at room temperature. Remove the solution carefully. The wells should not be allowed to dry, use immediately. Prepare the cells during the 45 min. of incubation with fibronectin. NIH3T3 CH1 (15.10)-cells are grown to confluency in T 175 cell-culture flasks in the above described medium. Remove the media and rinse the cells with PBS, add 2 ml of Trypsin / EDTA solution for cell detachment. Stop trypsin activity by addition of approx. 6 ml medium . Take an aliquot of the cells to determine the cellnumber and adjust the celldensity to 8 x 10^5/ml with medium. Take the fibronectin coated 96 well palate and spread 100 µl cell-suspension/well, let the cells grow to confluency over night.
Discard the medium carefully and wash the cells by addition of 200 µl medium (without supplements) / well and again discarding the medium. Add 200 µl 2% skimmed milk in medium. Incubate for 30 minutes at roomtemperatur. Wash twice with 200 µl medium (w supplements) / well carefully (to remove unbound skimmed milk). Preincubate with 50 µl testcompound diluted in medium, respectively medium only for the controls for 20 minutes; add 50 µl uPA-solution [200 ng/ml]. Incubate for 60 minutes at roomtemperature; wash carefully for 3 times with medium (200 µl/well). […] Measure at a wavelength of 405 nm (reference: 490 nm) with an ELISA-Reader. The yellow colour will appear after about 45 mins.

[2] = target: T2, human urokinase (uPA) binding to its specific receptor (uPAR) (Homo sapiens, UniProt Q03405); experiment: ELISA-Test: inhibition of uPA binding to its specific receptor (uPAR); conditions: synthetic or commercially available porphyrins; for IC50: read-out: IC50 (µg/ml) ELISA (converted)
Protocol: This test is described by P. Rettenerger et al. in Biol. Chem. Hoppe-Seyler 376, pp. 587-594 (1995). An alternate ELISA-test is described in Behrendt et al., Meth. Enzymol. 233 (1993), 207-222. • ELISA-Test: Inhibition of human urokinase (uPA) binding to its specific receptor (uPAR). The assays are performed in Microtiterplates (96 wells). The following solutions are used: • washing buffer: PBS-buffer (w/o Mg^2+Ca^2+) + 0,05% Tween 20; uPAR-solution 100 ng/ml (10 ng/well) • blocking solution 2% skimmed milk powder (Merck) in washing buffer • incubation buffer 0.5% skimmed milk powder in PBS uPA-solution 10 ng/well detection solutions (per microfilter plate): • (1) 6 ml (100 mM Tris-CI pH 7.5 + 0.15% Tween 80) + 1.5 ml (10 µg) Plasminogen in aqua bidest. • (2) 6 ml (100 mM Tris-CI pH 7.5 + 0.15% Tween 80) + 1.5 ml (7.5 mg) Chromozyme PL in aqua bidest.
The detection solution must be continously stirred.
Testing substances: the testing substances are solved in DMSO. They are used in the test system with a highest concentration of 100 µg/ml. Dissolutions are prepared using PBS.
Three controlls are performed: • a) positive controll: using 2% DMSO in PBS • b) negative controll: assay w/o receptor • c) inhibition controll: Inhibition (IC95 at 0.25 mg/ml) with Dextranesulfate (MW = 500.000)
Each well is incubated by 10 ng uPAR for 1 hour at roomtemperature (RT). After washing once each well is incubated for half an hour (37°C) with 200 µl/well blocking solution. After triple washing testing substance solution or controll solutions are added (50 µl/well and incubated for 15 min at RT. An additional 50 µl of uPA solution (10 ng in incubation buffer) are added. After 1 hour at RT a triple washing is performed.
Incubation 70 µl each of solution (1) and (2) at RT. After 20 min. a yellow color will be visible (the positive control reads an extinction of 1 after 40 min.). The detection is performed at […] (reference is […]) using a Dynatech MR 7000 ELISA reader.
To obtain the percentage of inhibition the following formula is used: % Inhibtion = 100-100* (Extinction (Test) - Extinction (Neg. contr.)/(Extinction (Pos. contr.) - Extinction (Neg. contr.)) [formula]

[3] = target: Urokinase (uPA not bound to uPAR) (Homo sapiens, UniProt P00749); experiment: ENZ: Urokinase-activity-assay (uPA not bound to uPAR); assay type: biochemical; conditions: assay without uPAR; for IC50: read-out: IC50 (µg/ml) ENZ (converted)
Protocol: ENZ: Urokinase-activity-assay (uPA not bound to uPAR)
This assay is identical to the uPA/uPAR assay of example one except that no uPAR is used, i.e. no incubation of the wells with uPAR and the following washing steps is necessary.

[4] = target: T2, human urokinase (uPA) binding to its specific receptor (uPAR); experiment: ELISA-Test: inhibition of uPA binding to its specific receptor (uPAR)
[5] = NIH3T3 CH1 (15.10)-cells, read-out: IC50 (µg/ml) cells (converted)

T1 sequence (Q03405 23-305 limits assumed): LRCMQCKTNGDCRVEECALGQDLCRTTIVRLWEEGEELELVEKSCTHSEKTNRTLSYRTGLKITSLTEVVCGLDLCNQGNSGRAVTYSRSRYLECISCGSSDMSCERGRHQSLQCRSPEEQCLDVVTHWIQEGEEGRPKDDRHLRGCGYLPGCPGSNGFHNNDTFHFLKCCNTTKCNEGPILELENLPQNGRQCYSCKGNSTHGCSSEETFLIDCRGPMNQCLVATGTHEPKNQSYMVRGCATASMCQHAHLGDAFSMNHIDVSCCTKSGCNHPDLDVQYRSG
T2 sequence (Q03405 23-305 limits assumed): as above

Row | IC50 [2] | IC50 [3] | Compound | other results
1 | 520 nM | 2350 nM | C=Cc1c(C)c2cc3nc(c(CC(=O)O)c4[nH]c(cc5nc(cc1[nH]2)C(C)=C5CC)c(C)c4C(=O)O)[C@@H](CCC(=O)O)[C@@H]3C [Chlorin e6] | IC50 [1, 5]: 12.9 µM
2 | 266 nM | 860 nM | O=C(O)c1ccc(-c2c3nc(c(-c4ccc(C(=O)O)cc4)c4ccc([nH]4)c(-c4ccc(C(=O)O)cc4)c4nc(c(-c5ccc(C(=O)O)cc5)c5ccc2[nH]5)C=C4)C=C3)cc1 [meso-tetra-(4-Carboxyphenyl)-Porphine] | IC50 [1, 5]: 30.6 µM
3 |  |  | N-Methyl Protoporphyrin IX | IC50 (µg/ml) ELISA [2]: 0,4 µg/ml
4 |  |  | Hematoporphyrin D | IC50 (µg/ml) cells ([1]; NIH3T3 CH1 (15.10)-cells): 1,4 µg/ml; IC50 (µg/ml) ELISA [2]: 0,52 µg/ml; IC50 (µg/ml) ENZ [3]: 3,1 µg/ml
5 | 1820 nM | 3510 nM | COC(=O)CCC1=C(C)c2cc3[nH]c(cc4nc(cc5[nH]c(cc1n2)c(CCC(=O)OC)c5C)C(S(=O)(=O)O)=C4C)c(S(=O)(=O)O)c3C [Deuteroporphyrin IX 2,4 Disulfonic Acid dimethylester] | 
6 | 8400 nM | 4280 nM | CC1=C(CCC(=O)O)c2cc3[nH]c(cc4nc(cc5[nH]c(cc1n2)c(C)c5C(O)CO)C(C)=C4C(O)CO)c(C)c3CCC(=O)O (centres unmarked) [Deuteroporphyrin IX 2,4-Bis Glycol] | 
7 |  |  | C=CC1=C(C)C(=Cc2[nH]c(Cc3[nH]c(C=C4NC(=O)C(C)=C4C=C)c(C)c3CCC(=O)O)c(CCC(=O)O)c2C)NC1=O [Bilirubine] | inhibition at 300 µg/mL [4]: 11%
8 | 678 nM | 95200 nM | CCOC(=O)CCC1=C(C)c2cc3[nH]c(cc4nc(cc5[nH]c(cc1n2)c(C)c5CCC(=O)OCC)C(CCC(=O)OCC)=C4C)c(C)c3CCC(=O)OCC [Coproporphyrin III tetraethylester] | IC50 [1, 5]: 124 µM
9 |  |  | Al Phtalocyanine Tetrasulfonate | IC50 (µg/ml) ELISA [2]: 3,7 µg/ml; IC50 (µg/ml) ENZ [3]: 2,3 µg/ml

Row | Compound | IC50 [2] | IC50 [3] | other results
10 | O=S(=O)(O)c1ccc(-c2c3nc(c(-c4ccc(S(=O)(=O)O)cc4)c4ccc([nH]4)c(-c4ccc(S(=O)(=O)O)cc4)c4nc(c(-c5ccc(S(=O)(=O)O)cc5)c5ccc2[nH]5)C=C4)C=C3)cc1 [meso-tetra-(4-Sulfonatophenyl)-Porphine Dihydrochlorid] | 214 nM | 674 nM | IC50 ([1]; read-out: IC50 (µg/ml) cells, NIH3T3 CH1 (15.10)-cells): 21.3 µM
11 | CCC1=C(C)c2cc3[nH]c(cc4nc(cc5[nH]c(cc1n2)c(C)c5CCC(=O)O)C(CCC(=O)O)=C4C)c(C)c3CC [Mesoporphyrin IX Dihydrochloride] | 406 nM | 2120 nM | IC50 [1]: 2.77 µM
